Test results from BindingDB's records for patent US12054475 (Kayothera, 2024).

Columns and labels:
Retinal dehydrogenase 2 [1] = target: T1, Retinal dehydrogenase 2 (Homo sapiens, UniProt O94788); assay: Aldh1a2 Enzyme Inhibition Assay
T1 sequence (O94788 whole entry): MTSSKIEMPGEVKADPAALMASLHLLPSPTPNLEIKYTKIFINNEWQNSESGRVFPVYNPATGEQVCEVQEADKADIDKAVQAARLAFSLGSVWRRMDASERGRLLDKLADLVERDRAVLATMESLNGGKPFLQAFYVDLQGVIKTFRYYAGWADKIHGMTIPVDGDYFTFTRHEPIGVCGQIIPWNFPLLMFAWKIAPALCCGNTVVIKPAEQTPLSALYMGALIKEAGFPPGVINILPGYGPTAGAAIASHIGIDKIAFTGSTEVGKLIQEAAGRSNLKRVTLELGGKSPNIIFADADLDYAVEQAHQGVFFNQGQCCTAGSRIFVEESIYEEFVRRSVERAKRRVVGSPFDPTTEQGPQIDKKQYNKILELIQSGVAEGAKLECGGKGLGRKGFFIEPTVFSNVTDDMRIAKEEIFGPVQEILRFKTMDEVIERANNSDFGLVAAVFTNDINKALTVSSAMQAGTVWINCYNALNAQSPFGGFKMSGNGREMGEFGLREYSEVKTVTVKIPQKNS

Retinal dehydrogenase 2 [2] = target: T2, Retinal dehydrogenase 2 (UniProt Q62148); assay: Aldh1a2 Enzyme Inhibition Assay
T2 sequence (Q62148 whole entry): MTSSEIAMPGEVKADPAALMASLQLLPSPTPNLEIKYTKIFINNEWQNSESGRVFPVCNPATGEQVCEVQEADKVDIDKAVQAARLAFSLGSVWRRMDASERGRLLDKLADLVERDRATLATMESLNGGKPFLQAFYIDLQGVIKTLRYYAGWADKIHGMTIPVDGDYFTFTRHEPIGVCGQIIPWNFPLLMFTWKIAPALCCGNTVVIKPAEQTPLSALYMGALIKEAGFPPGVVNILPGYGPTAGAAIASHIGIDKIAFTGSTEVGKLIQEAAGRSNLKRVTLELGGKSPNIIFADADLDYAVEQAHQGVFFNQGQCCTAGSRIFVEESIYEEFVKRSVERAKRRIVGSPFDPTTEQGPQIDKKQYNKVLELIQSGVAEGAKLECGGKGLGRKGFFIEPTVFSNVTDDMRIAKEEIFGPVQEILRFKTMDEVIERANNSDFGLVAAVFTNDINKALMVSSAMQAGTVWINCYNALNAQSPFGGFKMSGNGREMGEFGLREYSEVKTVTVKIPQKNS

CCC1COCCN1C(=O)Nc1cc(C)c2c(c1)CCC(=O)N2 (racemic) [US12054475, Compound 193]
IC50 (Retinal dehydrogenase 2 [1]): > 10 µM | IC50 (Retinal dehydrogenase 2 [2]): > 10 µM
